Measured values as given in patent publication US6790848B2, “4-piperazinylindole derivatives with 5-HT6 receptor affinity” (Syntex (U.S.A.) LLC, priority 2001, dated 2004).
Counter-ions that a name gives are not always drawn.

Compound	melting point
CC(C)CS(=O)(=O)c1cccc(S(=O)(=O)n2ccc3c(N4CCNCC4)cccc32)c1 (as salt: trifluoroacetate) [1-[3-(2-methyl-propane-1-sulfonyl)-benzenesulfonyl]-4-piperazin-1-yl-1H-indole]	220 to 222 °C
N#Cc1cccc(S(=O)(=O)n2ccc3c(N4CCNCC4)cccc32)c1 (as salt: trifluoroacetate) [3-(4-piperazin-1-yl-indole-1-sulfonyl)-benzonitrile]	238 °C (dec.)
Cn1cnc(S(=O)(=O)n2ccc3c(N4CCNCC4)cccc32)c1 (as salt: trifluoroacetate)	230 to 231 °C
O=S(=O)(c1cccc(F)c1)n1ccc2c(N3CCNCC3)cccc21 (as salt: trifluoroacetate) [1-(3-fluoro-benzenesulfonyl)-4-piperazin-1-yl-1H-indole]	227 to 228 °C (dec.)
CN1CCN(c2cccc3c2ccn3S(=O)(=O)c2ccc(F)cc2)CC1 (as salt: hydrochloride) [1-(4-fluoro-benzenesulfonyl)-4-(4-methyl-piperazin-1-yl)-1H-indole]	151 to 152 °C
